Inconclusive results and toxic doses are left out.
Test system: L1210 leukemia ip in BDF1 mice, survival T/C
Assay: NCI In Vivo Anticancer Drug Screen. Data for tumor model L1210 Leukemia (intraperitoneal) in B6D2F1 (BDF1) mice
Settings: endpoint: mean survival time, higher = longer survival
In short: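 Tumor cells were implanted, animals were treated, and survival was followed. The result divides the treated measurement by the vehicle-control measurement.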

[1] = dose: 100.0 mg/kg/injection, schedule: Q04DX003 (ip), vehicle: saline with Tween-80
[2] = dose: 200.0 mg/kg/injection, schedule: Q04DX003 (ip), vehicle: saline with Tween-80
[3] = dose: 400.0 mg/kg/injection, schedule: Q04DX003 (ip), vehicle: saline with Tween-80
[4] = dose: 50.0 mg/kg/injection, schedule: Q01DX001 (ip), vehicle: carboxymethylcellulose (CMC)
[5] = dose: 100.0 mg/kg/injection, schedule: Q01DX001 (ip), vehicle: carboxymethylcellulose (CMC)
[6] = dose: 200.0 mg/kg/injection, schedule: Q01DX001 (ip), vehicle: carboxymethylcellulose (CMC)
[7] = dose: 400.0 mg/kg/injection, schedule: Q01DX001 (ip), vehicle: carboxymethylcellulose (CMC)
[8] = dose: 50.0 mg/kg/injection, schedule: Q01DX009 (ip), vehicle: saline

**Q.** What does the source list for `O=C(Nc1ccc(C2=NCCN2)cc1)c1cncc(C(=O)Nc2ccc(C3=NCCN3)cc2)c1`?
**A.** T/C (dose: 1.0 mg/kg/injection, schedule: Q01DX Z (ip), vehicle: saline): 97 % of control; T/C (dose: 2.0 mg/kg/injection, schedule: Q01DX Z (ip), vehicle: saline): 111 % of control; T/C (dose: 15.0 mg/kg/injection, schedule: Q01DX Z (ip), vehicle: carboxymethylcellulose (CMC)): 223 % of control; T/C (dose: 16.0 mg/kg/injection, schedule: Q01DX Z (ip), vehicle: saline): 214 % of control; T/C (dose: 30.0 mg/kg/injection, schedule: Q01DX Z (ip), vehicle: carboxymethylcellulose (CMC)): 158 % of control; T/C (dose: 30.0 mg/kg/injection, schedule: Q01DX Z (oral), vehicle: saline): 101 % of control; T/C (dose: 60.0 mg/kg/injection, schedule: Q01DX Z (ip), vehicle: carboxymethylcellulose (CMC)): 120 % of control; T/C (dose: 60.0 mg/kg/injection, schedule: Q01DX Z (oral), vehicle: saline): 104 % of control; T/C (dose: 120.0 mg/kg/injection, schedule: Q01DX Z (oral), vehicle: saline): 98 % of control; T/C (dose: 240.0 mg/kg/injection, schedule: Q01DX Z (oral), vehicle: saline): 106 % of control; T/C (dose: 480.0 mg/kg/injection, schedule: Q01DX Z (oral), vehicle: saline): 101 % of control; T/C (dose: 960.0 mg/kg/injection, schedule: Q01DX Z (oral), vehicle: saline): 101 % of control

**Q.** Which T/C (dose: 50.0 mg/kg/injection, schedule: Q01DX009 (ip), vehicle: saline with Tween-80) does the source give for `CCOC(=O)C(=CNc1ccccc1OC)C(=O)OCC` here?
**A.** The T/C was 95 % of control.

**Q.** And the T/C (dose: 100.0 mg/kg/injection, schedule: Q01DX009 (ip), vehicle: saline with Tween-80)?
**A.** The T/C was 102 % of control.

**Q.** What about the T/C [1] of the same compound?
**A.** The T/C was 98 % of control.

**Q.** And the T/C (dose: 200.0 mg/kg/injection, schedule: Q01DX009 (ip), vehicle: saline with Tween-80)?
**A.** The T/C was 106 % of control.

**Q.** What about the T/C [2] of the same compound?
**A.** Its T/C is 110 % of control.

**Q.** What about the T/C (dose: 400.0 mg/kg/injection, schedule: Q01DX009 (ip), vehicle: saline with Tween-80) of the same compound?
**A.** The T/C was 98 % of control.

**Q.** And the T/C [3]?
**A.** Its T/C is 102 % of control.

**Q.** `O=S(=O)(Cc1nc2ccccc2[nH]1)Cc1nc2ccccc2[nH]1` was tested. Which T/C [4] did it give?
**A.** Its T/C is 97 % of control.

**Q.** What about the T/C [5] of the same compound?
**A.** Its T/C is 92 % of control.

**Q.** And the T/C [6]?
**A.** The T/C was 100 % of control.

**Q.** And the T/C [7]?
**A.** Its T/C is 92 % of control.

**Q.** With `CCCCCCC(=O)/C=C/c1ccc(Cl)cc1` as the compound, how does the T/C (dose: 100.0 mg/kg/injection, schedule: Q01DX009 (ip), vehicle: acetone) read?
**A.** Its T/C is 93 % of control.

**Q.** And the T/C [1]?
**A.** The T/C was 96 % of control.

**Q.** What about the T/C (dose: 200.0 mg/kg/injection, schedule: Q01DX009 (ip), vehicle: acetone) of the same compound?
**A.** Its T/C is 90 % of control.

**Q.** What about the T/C [2] of the same compound?
**A.** Its T/C is 98 % of control.

**Q.** What about the T/C (dose: 400.0 mg/kg/injection, schedule: Q01DX009 (ip), vehicle: acetone) of the same compound?
**A.** The T/C was 92 % of control.

**Q.** What about the T/C [3] of the same compound?
**A.** The T/C was 93 % of control.

**Q.** For `CN1C(C)(C)CC(O)(C(O)(c2ccccc2)c2ccccc2)CC1(C)C`, which T/C (dose: 100.0 mg/kg/injection, schedule: Q04DX003 (ip), vehicle: acetone) is on record?
**A.** The T/C was 98 % of control.

**Q.** What does the source list for `CN(C)Cc1cc2ccccc2cc1C(O)(c1ccccc1)c1ccccc1`?
**A.** T/C [4]: 102 % of control; T/C [5]: 88 % of control; T/C [6]: 94 % of control; T/C [7]: 96 % of control

**Q.** For `O=C1CC(=O)Nc2ccccc2N1`, which T/C [8] is on record?
**A.** The T/C was 86 % of control.

**Q.** And the T/C (dose: 100.0 mg/kg/injection, schedule: Q01DX009 (ip), vehicle: saline)?
**A.** Its T/C is 86 % of control.

**Q.** And the T/C (dose: 100.0 mg/kg/injection, schedule: Q04DX003 (ip), vehicle: saline)?
**A.** The T/C was 98 % of control.

**Q.** What about the T/C (dose: 200.0 mg/kg/injection, schedule: Q01DX009 (ip), vehicle: saline) of the same compound?
**A.** Its T/C is 96 % of control.

**Q.** And the T/C (dose: 200.0 mg/kg/injection, schedule: Q04DX003 (ip), vehicle: saline)?
**A.** The T/C was 101 % of control.

**Q.** And the T/C (dose: 400.0 mg/kg/injection, schedule: Q04DX003 (ip), vehicle: saline)?
**A.** Its T/C is 101 % of control.

**Q.** For `CCOC(=O)C(=[N+]=[N-])S(=O)(=O)c1ccccc1`, which T/C [1] is on record?
**A.** Its T/C is 97 % of control.

**Q.** What about the T/C [2] of the same compound?
**A.** The T/C was 101 % of control.

**Q.** What about the T/C [3] of the same compound?
**A.** Its T/C is 114 % of control.

**Q.** Which T/C (dose: 200.0 mg/kg/injection, schedule: Q04DX003 (ip), vehicle: saline sonified) does the source give for `COc1cc(C(=O)NOCc2cc3c(cc2Cl)OCO3)cc(OC)c1OC` here?
**A.** Its T/C is 92 % of control.

**Q.** And the T/C (dose: 400.0 mg/kg/injection, schedule: Q04DX003 (ip), vehicle: saline sonified)?
**A.** Its T/C is 90 % of control.

**Q.** Which T/C (dose: 50.0 mg/kg/injection, schedule: Q04DX002 (ip), vehicle: saline with Tween-80) does the source give for `COc1cc(Cc2nccc3ccccc23)cc([N+](=O)[O-])c1OC` here?
**A.** Its T/C is 97 % of control.

**Q.** And the T/C (dose: 100.0 mg/kg/injection, schedule: Q04DX002 (ip), vehicle: saline with Tween-80)?
**A.** Its T/C is 93 % of control.

**Q.** What about the T/C (dose: 200.0 mg/kg/injection, schedule: Q04DX002 (ip), vehicle: saline with Tween-80) of the same compound?
**A.** Its T/C is 90 % of control.

**Q.** What about the T/C (dose: 400.0 mg/kg/injection, schedule: Q04DX002 (ip), vehicle: saline with Tween-80) of the same compound?
**A.** The T/C was 87 % of control.

**Q.** For `CN(C)C1CCc2ccc3ccccc3c2C1=O` (stereo not given), which T/C [8] is on record?
**A.** The T/C was 88 % of control.

Source: PubChem BioAssay AID248 (DTP/NCI, 2004)
